Values quoted from earlier work, collected in US20190133115A1, “PESTICIDAL SOLUBLE MICRO-EMULSION CONCENTRATE SEED TREATMENT FORMULATIONS” (priority 2017, published 2019).

Details: in alcohols, e.g., ethanol, acetone, and toluene

Question: Which solubility does the source give for `COCC(=O)N(c1c(C)cccc1C)C(C)C(=O)OC` (racemic) [Metalaxyl, methyl N-(methoxyacetyl)-N-(2,6-xylyl)-DL-alanate] here?
Answer: The solubility was “soluble”.
